Consider 1 molecule from patent publication US20240270809A1, “ORAL GLP RECEPTOR AGONISTS” (priority 2020, published 2024).

pEC50: −log10 of the molar value. Positions of bridges follow the written chain, without caps; N, C: chain ends. Non-standard residues stand in square brackets, D forms with d. Residues, ends and D or L forms follow the SMILES beside them. *: point of attachment. Malonyl(2,2-Me2,histaminyl) = CC(C)(C(=O)NCCc1cnc[nH]1)C(=O)*; Ala(1H-tetrazol-5-yl) = N[C@@H](Cc1nnn[nH]1)C(=O)O; αMePhe(2-F) = C[C@](N)(Cc1ccccc1F)C(=O)O; Nle = CCCC[C@H](N)C(=O)O

A short description of series [1]: in vitro. The note with it: Sprague Dawley, rat, real gastrointestinal fluid or homogenate.
Procedure: Peptides were tested for in vitro stability in native intestinal fluid obtained from the rat small intestine. Rat Sprague Dawley Small Intestinal Fluid (ratIF) (from Biotrend art. no. RSD-SIF-MI-30ML, undiluted) was preincubated for 15 min at 37° C. and spiked with test and reference item working solutions. Experiments were conducted in duplicate in a non-serial manner. The total incubation volume per replicate was 150 μl. […] All samples and calibration standards (prepared in ratIF) were precipitated by addition of 300 μl precipitant (ACN / 2% acetic acid / 0.2% HFBA, (precipitation regent, PR)) containing internal standards (ISTD) to 150 μl sample. After incubation for 1 h at room temperature all samples were centrifuged for 10 min at 2,200×g (room temperature).
The target of series [2] is T1, human GLP2 receptor (Homo sapiens, UniProt O95838).
T1 construct: expressed in transfected cells; host or cells: HEK cells, BacMam virus transduction
T1 sequence (O95838 1-553): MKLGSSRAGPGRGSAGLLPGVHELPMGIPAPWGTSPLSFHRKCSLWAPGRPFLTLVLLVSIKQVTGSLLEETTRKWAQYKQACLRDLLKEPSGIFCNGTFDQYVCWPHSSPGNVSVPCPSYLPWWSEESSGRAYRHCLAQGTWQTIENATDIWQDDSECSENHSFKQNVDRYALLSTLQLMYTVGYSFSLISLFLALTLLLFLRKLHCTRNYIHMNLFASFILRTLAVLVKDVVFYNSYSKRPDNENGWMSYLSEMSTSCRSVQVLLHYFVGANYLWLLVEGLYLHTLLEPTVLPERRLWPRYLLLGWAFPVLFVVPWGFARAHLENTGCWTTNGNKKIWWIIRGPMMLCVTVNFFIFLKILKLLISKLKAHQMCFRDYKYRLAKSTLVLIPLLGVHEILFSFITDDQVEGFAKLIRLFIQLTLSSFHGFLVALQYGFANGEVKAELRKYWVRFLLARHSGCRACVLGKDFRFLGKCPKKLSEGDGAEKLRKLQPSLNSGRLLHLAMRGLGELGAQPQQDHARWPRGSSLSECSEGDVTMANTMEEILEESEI
Nature of the series: cAMP accumulation assay, functional agonism of human GLP2 receptor. Type of series: cell-based. The note with it: HEK cells infected with human GLP2 receptor BacMam virus, HTRF cAMP. The essentials:
(§1)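 cAMP by HTRF in BacMam-transduced HEK cells (24 h infection, frozen stocks); 0.5 mM IBMX in HBSS, 45 min, 37° C.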

Series [3] has as its target T2, mouse GLP2 receptor (Mus musculus, UniProt Q5IXF8).
T2 construct: expressed in transfected cells; host or cells: HEK cells, transient transfection with GeneJuice
T2 sequence (Q5IXF8 1-512): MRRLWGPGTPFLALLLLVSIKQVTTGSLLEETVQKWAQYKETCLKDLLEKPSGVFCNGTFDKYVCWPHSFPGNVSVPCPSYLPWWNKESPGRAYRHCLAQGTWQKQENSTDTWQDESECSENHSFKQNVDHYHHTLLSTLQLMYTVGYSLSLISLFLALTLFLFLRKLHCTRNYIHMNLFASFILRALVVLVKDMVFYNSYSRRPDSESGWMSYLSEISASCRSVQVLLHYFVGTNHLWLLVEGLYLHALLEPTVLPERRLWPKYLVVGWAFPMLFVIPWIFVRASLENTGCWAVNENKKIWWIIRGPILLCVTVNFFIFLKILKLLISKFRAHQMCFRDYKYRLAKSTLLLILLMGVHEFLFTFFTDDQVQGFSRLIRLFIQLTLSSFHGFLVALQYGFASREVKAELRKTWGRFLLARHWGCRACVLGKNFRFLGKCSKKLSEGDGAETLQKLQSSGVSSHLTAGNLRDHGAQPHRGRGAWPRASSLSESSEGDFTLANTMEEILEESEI
Nature of the series: cAMP accumulation assay, functional agonism of mouse GLP2 receptor. The format is cell-based. The essentials:
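pEC50 values come from four-parameter fits of HTRF cAMP signal, read after lysis and 1 h RT incubation. Compounds were incubated 45 min at 37 °C with previously frozen, transiently transfected HEK cells (8000/well) in HBSS containing 0.5 mM IBMX.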

In series [4] the target is T3, human GLP1 receptor (Homo sapiens, UniProt P43220).
T3 construct: expressed in transfected cells; host or cells: HEK cells, BacMam virus transduction
T3 sequence (P43220 24-463): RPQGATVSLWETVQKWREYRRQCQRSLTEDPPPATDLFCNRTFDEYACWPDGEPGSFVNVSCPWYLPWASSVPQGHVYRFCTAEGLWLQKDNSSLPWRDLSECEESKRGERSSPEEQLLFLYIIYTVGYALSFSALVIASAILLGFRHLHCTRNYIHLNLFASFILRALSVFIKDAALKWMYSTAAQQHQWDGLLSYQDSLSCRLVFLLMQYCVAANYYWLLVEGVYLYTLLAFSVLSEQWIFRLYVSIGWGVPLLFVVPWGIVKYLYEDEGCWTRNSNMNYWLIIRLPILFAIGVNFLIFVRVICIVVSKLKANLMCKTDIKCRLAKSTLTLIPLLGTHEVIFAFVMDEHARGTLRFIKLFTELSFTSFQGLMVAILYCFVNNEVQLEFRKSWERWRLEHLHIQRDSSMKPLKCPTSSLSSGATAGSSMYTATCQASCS
The series is described as follows: cAMP accumulation assay, functional agonism of human GLP1 receptor. The format is cell-based. The note with it: HEK cells infected with human GLP1 receptor BacMam virus, HTRF cAMP. Put shortly:
as §1

In series [1], `CCCC[C@@H]1NC(=O)[C@H](CCC(=O)O)NC(=O)[C@@H](NC(=O)[C@H](CO)NC(=O)[C@](C)(Cc2ccccc2F)NC(=O)[C@H](CO)NC(=O)[C@@H](C)NC(=O)[C@H](Cc2nn[nH]n2)NC(=O)C(C)(C)C(=O)NCCc2c[nH]cn2)CCCCNC(=O)C[C@@H](C(=O)N[C@H](C(=O)N[C@@H](CC(C)C)C(=O)N[C@@H](CC(=O)O)C(=O)N[C@H]2CCC(=O)NCCCC[C@@H](C(=O)N[C@@H](CC(=O)O)C(=O)N[C@@H](Cc3ccccc3)C(=O)N[C@H](C(=O)N[C@H]3CCCCNC(=O)C[C@@H](C(=O)N[C@H]4CCC(=O)NCCCC[C@@H](C(N)=O)NC(=O)[C@H]([C@@H](C)O)NC(=O)[C@H]([C@@H](C)CC)NC(=O)[C@H](CCCCN)NC4=O)NC(=O)[C@H]([C@@H](C)CC)NC(=O)[C@H](CC(C)C)NC(=O)[C@H](Cc4c[nH]c5ccccc45)NC3=O)[C@@H](C)CC)NC(=O)[C@H](C)NC(=O)[C@H](C)NC(=O)[C@H](CCCCN)NC2=O)[C@@H](C)CC)NC(=O)[C@@H](Cc2ccccc2)NC1=O` [Example 55] ({Malonyl(2,2-Me2,histaminyl)}-[Ala(1H-tetrazol-5-yl)][dA]S[αMePhe(2-F)]SKE[Nle][dF]DILDEKAAKDFIKWLIDEKITK-NH2; lactam 6-10, 14-18, 22-26, 27-31 (inferred); C-terminus assumed) showed a share remaining at 0.5 h of 64.9%. Moreover, the maximal effect (Emax) in series [2] (HEK293, read-out: Human GLP-2R agonist cAMP Emax) is 103%; in series [3] (HEK293, read-out: Mouse GLP-2R agonist cAMP Emax) it was 101%; in series [4] (HEK293, read-out: Human GLP-1R agonist cAMP Emax), 97.9%. Besides, the EC50 in series [2] (read-out: Human GLP-2R agonist cAMP pEC50 (converted)) was 0.01 nM; in series [4] (read-out: Human GLP-1R agonist cAMP pEC50 (converted)), 0.0501 nM. Moreover, the negative-log EC50 (pEC50) in series [3] is 9.50.
